Our source for the GI50 and TGI values is PubChem BioAssay (NCI).

Values joined by “and” are separate entries in the source; they are usually repeats but may differ in a detail not shown here. Equal entries are not always repeated.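 Results reflect a 48-hour exposure of cells in 96-well plates to compound at five concentrations. At the GI50, growth is halved. The concentration for full growth arrest is given as TGI.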

Common to all, as to experiment: growth of human tumour cells (NCI), 48 h
For assay [1], the system named is SN12C renal.
The subject of assay [2] is SW-620 colon.
Assay [3] concerns A549 NSCLC.
The test system of assay [4] is PC-3 prostate.
Assay [5] deals with SK-OV-3 ovarian.
Assay [6] has as its system A498 renal.
Assay [7] concerns SF-268 CNS.
Assay [8] has as its system LOX IMVI melanoma.
The subject of assay [9] is TK-10 renal.
Assay [10] deals with NCI-H23 lung.

On to `O=[N+]([O-])/C(=C/C=C/c1ccccc1)c1ccccc1`, for which the GI50 is 1.85 µM in [1]; 1.79 µM in [2]; 2.41 µM in assay [3]; 1.88 µM in assay [4]; 12 µM in [5]; 3.78 µM in assay [6]. Further, the GI50 in assay [7] was 2.96 µM; in [8], 1.67 µM; in [9], 2.04 µM; in [10], 2.25 µM. The TGI worked out at 4.03 µM in assay [1]; 3.67 µM in assay [2]; 6.79 µM in assay [3]; 4.29 µM in assay [4]; 24.4 µM in [5]; 9.66 µM in assay [6]. The TGI in [7] was found to be 8.93 µM; in assay [8], 3.29 µM; in [9], 4.46 µM; in [10], 6.16 µM.
`CC(C)OC(=O)c1cc(NC(=S)OC(C)C)ccc1Cl`: the TGI was 34.4 µM in assay [1]; above 64.6 µM in [2]; above 66.8 µM in assay [3]; 50.9 µM in [4]; above 62.6 µM in assay [5]; above 51.1 µM in assay [6]. Besides, the TGI was above 59.6 µM in [7], 31.2 µM in [8], 52.4 µM in assay [9] and 68.1 µM in [10].
On to `COc1ccc2c(c1)CCC1C2CCC2(C)C(NC(=O)CCCCC3CCSS3)CCC12` (stereo not given), for which the GI50 is 16.4 µM in [1]; above 100 µM in assay [2]; 32.5 µM in assay [3]; 7.18 µM in [4]; 43.8 µM in assay [5]; 62.2 µM in assay [6]. For the same compound, the GI50 was 6.85 µM in [7], 32.5 µM in assay [8], 16.1 µM in assay [9] and above 100 µM in assay [10]. The TGI in assay [1], in assay [2], in [3], in assay [4], in [5] and in assay [6] was above 100 µM in each case. The TGI in assay [7], in [8], in assay [9] and in [10] was above 100 µM in each case.
For the compound `CN(C)CC(=O)N1CCc2c([nH]c3ccccc23)C1c1cccnc1` (stereo not given), the TGI in [1], in [2], in [3], in assay [4], in assay [5] and in [6] was above 100 µM each time. Besides, the TGI in [7], in assay [8], in assay [9] and in assay [10] was above 100 µM throughout. Moreover, the GI50 in assay [4] was 93 µM.
As to `C#CCN(CCCOc1ccc(Cl)cc1Cl)CCCSC(=O)CCCCCN1/C(=C\C=C2/CCCC(/C=C/C3=[N+](CCCCCC(=O)[O-])c4ccccc4C3(C)C)=C2Cl)C(C)(C)c2ccccc21`, the GI50 in assay [1] is 0.587 µM; in [2], 1.65 µM; in [3] it was 3.22 µM; in assay [4], 1.69 µM; in assay [5], 2.97 µM; in assay [6], 1.31 µM. For the same compound, the GI50 in assay [7] is 1.84 µM; in assay [8], 1.46 µM; in [9], 2.21 µM; in [10], 1.94 µM. Further, the TGI in assay [1] turned out to be 2.74 µM; in assay [2], 5.44 µM; in assay [3] it was 13.2 µM; in [4] it was 4.01 µM; in [5], 8.86 µM; in [6], 4.12 µM. Also, the TGI in [7] was determined as 6.74 µM; in assay [8] it was 2.83 µM; in assay [9], 5.17 µM; in assay [10], 5.09 µM.
In the case of `CN(Cc1cnc2nc(N)nc(N)c2n1)c1c(Cl)cc(C(=O)NC(CCC(=O)O)C(=O)O)cc1Br` (stereo not given), the GI50 in [1] was below 0.01 µM; in assay [2], below 0.01 µM; in [3], below 0.01 µM; in assay [4] it was below 0.01 µM; in assay [5], 0.0595 µM; in assay [6], 0.0302 µM. The GI50 in [7] was below 0.01 µM; in assay [8] it was below 0.01 µM; in assay [9] it was below 0.01 µM; in assay [10], 0.016 µM. The TGI is above 100 µM in [1]; above 100 µM in assay [2]; above 100 µM in assay [3]; above 80.1 µM in assay [4]; above 100 µM in [5]; above 100 µM in assay [6]. Further, the TGI in assay [7], in assay [8], in assay [9] and in [10] was above 100 µM each time.
In the case of `N#CC(C#N)=C/C=C/c1ccccc1[N+](=O)[O-]`, the TGI in assay [1], in assay [2], in assay [3], in assay [4], in [5] and in assay [6] was above 10 µM each time. Further, the TGI in [7] is above 10 µM; in assay [8] it was 7.09 µM; in assay [9], above 10 µM; in [10], above 10 µM.
Consider `Cc1nc2sc(C(=O)Nc3cccc(Cl)c3)c(N)c2cc1C(O)c1ccccc1` (stereo not given), for which the GI50 in assay [1] was 0.976 µM; in assay [2], 0.351 µM; in assay [3], 1.59 µM; in assay [4], 2.78 µM; in assay [5] it was 1.22 µM; in [6], 0.181 µM. Also, the GI50 in [7] was 2.66 µM; in [8], 0.687 µM; in assay [9], 3.77 µM; in assay [10], 1.4 µM. The TGI was determined as 13.6 µM in [1]; 19.7 µM in [2]; 38.8 µM in assay [3]; 25.1 µM in assay [4]; 16.1 µM in assay [5]; 0.815 µM in assay [6]. For the same compound, the TGI in assay [7] amounted to 28.3 µM; in [8], 22.5 µM; in assay [9] it was 33.6 µM; in [10], 19.4 µM.
`CN1CCC(C(=O)Nc2n[nH]c3nnc(-c4ccccc4)cc23)CC1`: the GI50 in assay [1] was above 25 µM; in assay [2], above 25 µM; in assay [3] it was above 25 µM; in assay [4], above 22.7 µM; in [5], 16.6 µM; in assay [6], 5.67 µM. For the same compound, the GI50 in assay [7] was above 25 µM; in [8], 20.3 µM; in assay [9], above 25 µM; in assay [10], above 25 µM. In addition, the TGI in assay [1] is above 25 µM; in assay [2], above 25 µM; in [3], above 25 µM; in assay [4], above 25 µM; in [5], above 25 µM; in assay [6] it was above 21.5 µM. Besides, the TGI in assay [7], in assay [8], in assay [9] and in assay [10] was above 25 µM in each case.
Regarding `CC(=O)O[C@H]1C(=O)[C@@]2(C)C([C@H](OC(=O)c3ccccc3)[C@]3(O)C[C@H](OC(=O)[C@H](O)[C@@H](NC(=O)c4ccc(Cl)cc4)c4ccccc4)C(C)=C1C3(C)C)C1(OC(C)=O)CO[C@@H]1C[C@@H]2O` (stereo not given in full), the GI50 in [1] was 0.0166 µM; in assay [3], 0.0219 µM; in assay [6], 11.1 µM; in assay [9], 0.254 µM. For the same compound, the TGI in [1] was 25 µM and 83.2 µM; in [2], 25 µM and > 100 µM; in assay [3], 25 µM and > 100 µM; in [4] it was 0.217 µM; in assay [5], 13.7 µM and 36.7 µM; in [6] it was 25 µM and > 100 µM. Besides, the TGI was 25 µM and 82.5 µM in assay [7]; 49.6 µM in assay [8]; 25 µM and 47.7 µM in assay [9]; 25 µM and > 100 µM in [10].
Take `O=C([CH-]C(=O)c1ccccc1)c1ccccc1.[CH2-]C.[CH2-]C.[Tl+3]`: the GI50 was 14.4 µM in assay [1]; 26.5 µM in assay [2]; 20.7 µM in assay [3]; 32 µM in assay [4]; 32.5 µM in assay [5]; 48.9 µM in [6]. The GI50 in [7] is 18.4 µM; in [8] it was 10.4 µM; in assay [9], 55 µM; in assay [10], 32.3 µM. Besides, the TGI in assay [1] is above 100 µM; in assay [2], above 100 µM; in [3] it was 66.3 µM; in assay [4], above 100 µM; in assay [5], above 100 µM; in [6], above 100 µM. Further, the TGI in assay [7] is above 100 µM; in assay [8], 54.7 µM; in assay [9] it was above 100 µM; in [10], above 100 µM.
For `NCC[PH+](c1ccccc1)c1ccccc1.NCC[PH+](c1ccccc1)c1ccccc1.[Cl-].[Pt+4]`, the GI50 in [1], in assay [2], in assay [3], in [4], in assay [5] and in assay [6] was above 100 µM throughout. Moreover, the GI50 in assay [7], in assay [8], in assay [9] and in assay [10] was above 100 µM each time. The TGI in assay [1], in assay [2], in assay [3], in assay [4], in assay [5] and in assay [6] was above 100 µM throughout. Moreover, the TGI in assay [7], in assay [8], in assay [9] and in assay [10] was above 100 µM each time.
